The source of these data is patent US10196393B2, “JAK inhibitors containing a 4-membered heterocyclic amide” (THERAVANCE BIOPHARMA R&D IP, LLC, priority 2017, dated 2019).

SMILES strings stand for the structures. Where two headings read alike, the source gives them in different places.

Common to all, as to format: cell-based
For assay [1], the system named is IL-13 induced STAT6 phosphorylation in BEAS-2B human lung epithelial cells. Description: Cellular JAKI potency assay (AlphaScreen), BEAS-2B. The settings on record: Homo sapiens, BEAS-2B cells. As to the method:
Assay 2: Cellular JAKI Potency Assay
The AlphaScreen JAKI cellular potency assay was carried out by measuring interleukin-13 (IL-13, R&D Systems) induced STAT6 phosphorylation in BEAS-2B human lung epithelial cells (ATCC). The anti-STAT6 antibody (Cell Signaling Technologies) was conjugated to AlphaScreen acceptor beads (Perkin Elmer), while the anti-pSTAT6 (pTyr641) antibody (Cell Signaling Technologies) was biotinylated using EZ-Link Sulfo-NHS-Biotin (Thermo Scientific).
BEAS-2B cells were grown at 37° C. in a 5% CO2 humidified incubator in 50% DMEM/50% F-12 medium (Life Technologies) supplemented with 10% FBS (Hyclone), 100 U/mL penicillin, 100 μg/mL streptomycin (Life Technologies), and 2 mM GlutaMAX (Life Technologies). On day 1 of the assay, cells were seeded at a 7,500 cells/well density in white poly-D-lysine-coated 384-well plates (Corning) with 25 μL medium, and were allowed to adhere overnight in the incubator. On day 2 of the assay, the medium was removed and replaced with 12 μL of assay buffer (Hank's Balanced Salt Solution/HBSS, 25 mM HEPES, and 1 mg/ml bovine serum albumin/BSA) containing dose-responses of test compounds. Compounds were serially diluted in DMSO and then diluted another 1000-fold in media to bring the final DMSO concentration to 0.1%. Cells were incubated with test compounds at 37° C. for 1 h, and followed by the addition of 12 μl of pre-warmed IL-13 (80 ng/mL in assay buffer) for stimulation. After incubating at 37° C. for 30 min, the assay buffer (containing compound and IL-13) was removed, and 10 μL of cell lysis buffer (25 mM HEPES, 0.1% SDS, 1% NP-40, 5 mM MgCl2, 1.3 mM EDTA, 1 mM EGTA, and supplement with Complete Ultra mini protease inhibitors and PhosSTOP from Roche Diagnostics). The plates were shaken at ambient temperature for 30 min before the addition of detection reagents. A mixture of biotin-anti-pSTAT6 and anti-STAT6 conjugated acceptor beads was added first and incubated at ambient temperature for 2 h, followed by the addition of streptavidin conjugated donor beads (Perkin Elmer). After a minimum of 2 h incubation, the assay plates were read on the EnVision plate reader. AlphaScreen luminescence signals were recorded and utilized to calculate the percent inhibition values based on DMSO and background controls.
For dose-response analysis, percent inhibition data were plotted vs. compound concentrations, and IC50 values were determined from a 4-parameter robust fit model with the Prism software. Results may also be expressed as the negative logarithm of the IC50 value, pIC50.
Test compounds having a lower IC50 value or higher pIC50 value in this assay show greater inhibition of IL-13 induced STAT6 phosphorylation.

Assay [2] relates to IL-6 stimulated STAT3 phosphorylation in CD3+ T cells. The experiment in a line: Cellular JAK potency assay: inhibition of IL-6 stimulated pSTAT3 in CD3+ T cells. The settings on record: T-cell; CD3+ T cells in human PBMCs; read-out: pIC50, inhibition of IL-6 stimulated pSTAT3 (converted). From the text:
Assay 11: Cellular JAK Potency Assay: Inhibition of IL-6 Stimulated pSTAT3 in CD3+ T Cells
A protocol analogous to that of Assay 10 was used to determine the potency of the test compound for inhibition of interleuken-6 (IL-6) stimulated STAT3 phosphorylation. An Alexa Fluor 647 conjugated anti-pSTAT3 antibody (pY705, Clone 4/P, BD Biosciences) was used to detect STAT3 phosphorylation.

Assay [3] relates to IFNγ induced CXCL10 and CXCL9 secretion in EpiAirway tissue cultures. The experiment in a line: Inhibition of IFNγ induced chemokines CXCL9 and CXCL10 in human 3D airway cultures. The settings on record: 192 h, Day 8, ±STDV. As to the method:
Assay 7: Inhibition of IFNγ and IL-27 Induced Chemokines CXCL9 and CXCL10 in Human 3D Airway Cultures
EpiAirway tissue cultures were obtained from Mattek (AIR-100). Cultures were derived from asthmatic donors. In a cell culture insert, human derived tracheal/bronchial epithelial cells were grown and differentiated on a porous membrane support, allowing an air-liquid interface with warmed culture medium below the cells and a gaseous test atmosphere above. Tissues were cultured in maintenance media (Mattek, AIR-100-MM) in a 37° C., 5% CO2 humidified incubator. Four donors were tested. On Day 0, tissue cultures were treated with test compounds at 10 μM, 1 μM and/or 0.1 μM. Compounds were diluted in dimethyl sulfoxide (DMSO, Sigma) to a final concentration of 0.1%. DMSO at 0.1% was used as a vehicle control. Test compounds were incubated with cultures for 1 hour at 37° C., 5% CO2, followed by the addition of pre-warmed media containing IFNγ (R&D Systems) or IL-27 (R&D Systems) at a final concentration at 100 ng/ml. Tissue cultures were maintained for 8 days. Media was replaced every 2 days with fresh media containing compounds and IFNγ or IL-27. On Day 8, tissue cultures and supernatants were collected for analysis. Supernatant samples were assayed for CXCL10 (IP-10) and CXCL9 (MIG) using luminex analysis (EMD Millipore). Data is expressed as % Inhibition +/−standard deviation (±STDV). Percent inhibition was determined by compound inhibitory potency against IFNγ or IL-27 induced CXCL10 or CXCL9 secretion compared to vehicle treated cells. Data is the average from 3 or 4 donors. […] The compound of example 2 was able to inhibit IFNγ induced CXCL9 secretion by 93%±13 (at 10 μM) and 24%±49 (at 1 μM) when compared to vehicle.

As for `CCc1cc(O)c(F)cc1-c1ccc2c(-c3nc4c([nH]3)CN(C(C)C)[C@H](C(=O)N3CC(N(C)C)C3)C4)n[nH]c2c1` [Example 2, (S)-(3-(dimethylamino)azetidin-1-yl)(2-(6-(2-ethyl-5-fluoro-4-hydroxyphenyl)-1H-indazol-3-yl)-5-isopropyl-4,5,6,7-tetrahydro-3H-imidazo[4,5-c]pyridin-6-yl)methanone], the IC50 in assay [1] is 4.1 nM; in assay [2], 63.1 nM. In assay [3] (at 0.1 μM), the inhibition at 0.1 µM is 6%. In addition, the inhibition at 1 µM in assay [3] (at 1 μM) was 24%. For the same molecule, the inhibition at 10 µM came to 101% in assay [3] (3 or 4 donors, read-out: % inhibition of IFNγ induced CXCL10 secretion) and 93% in assay [3] (read-out: % inhibition of IFNγ induced CXCL9 secretion).
